US20180077929A1, “METHODS AND SYSTEMS FOR TREATING MEDICAL DEVICES AND FLUIDS” (priority 2016, published 2018)
Marks after values point to notes of the source that are not given here.

Assay: Kinetics of removal of LPS with different agitation techniques and stearate salts
Format: biochemical
Settings: for Endotoxin Detected: 5 mL SRW, baseline 1,502 EU; for Percent (%) Removed: SRW baseline 1,502 EU
Procedure: 5 mL of SRW was added to each of the tubes. Each solution was tested for endotoxin removal after agitation based on with sonication, vortexing, or test tube rolling. Sonication samples were sonicated at each indicated time interval for 30 seconds at a magnitude of 30. Vortex samples were vortexed at each indicated time interval for 30 seconds at 2500 RPM. Rolling samples were constantly rolling at 10 rpm. The samples were tested on the MCS for endotoxin at 1 minute, 20 minutes, 40 minutes, 60 minutes, and 80 minutes.

Compound | Endotoxin Detected (Rolling, 1 minute) | Percent (%) Removed (Rolling, 1 minute) [%] | Endotoxin Detected (Rolling, 20 minutes) | Percent (%) Removed (Rolling, 20 minutes) [%] | Endotoxin Detected (Rolling, 40 minutes) | Percent (%) Removed (Rolling, 40 minutes) [%] | Endotoxin Detected (Rolling, 60 minutes) | Percent (%) Removed (Rolling, 60 minutes) [%] | Endotoxin Detected (Rolling, 80 minutes) | Percent (%) Removed (Rolling, 80 minutes) [%] | Endotoxin Detected (Sonication, 1 minute) [EU] | Percent (%) Removed (Sonication, 1 minute) [%] | Endotoxin Detected (Sonication, 20 minutes) [EU] | Percent (%) Removed (Sonication, 20 minutes) [%] | Endotoxin Detected (Sonication, 40 minutes) [EU] | Percent (%) Removed (Sonication, 40 minutes) [%] | Endotoxin Detected (Sonication, 60 minutes) [EU] | Percent (%) Removed (Sonication, 60 minutes) [%] | Endotoxin Detected (Sonication, 80 minutes) [EU] | Percent (%) Removed (Sonication, 80 minutes) [%] | also measured
CCCCCCCCCCCCCCCCCC(=O)[O-].[Al+3].[OH-].[OH-] [Aluminum Monostearate] | 221* EU | 85.3 | 1,260 EU | 16.1 | 1,240 EU | 17.4 | 672 EU | 55.3 | 1,220 EU | 18.8 | 626 | 58.3 | 406 | 73 | 375 | 75 | 434 | 71.1 | 291 | 80.6 | Endotoxin Detected (Vortexing, 1 minute): 817 EU; Percent (%) Removed (Vortexing, 1 minute): 45.6%; Endotoxin Detected (Vortexing, 20 minutes): 849 EU; Percent (%) Removed (Vortexing, 20 minutes): 43.5%; Endotoxin Detected (Vortexing, 40 minutes): 786 EU; Percent (%) Removed (Vortexing, 40 minutes): 47.7%; Endotoxin Detected (Vortexing, 60 minutes): 801 EU; Percent (%) Removed (Vortexing, 60 minutes): 46.7%; Endotoxin Detected (Vortexing, 80 minutes): 757 EU; Percent (%) Removed (Vortexing, 80 minutes): 49.6%
Magnesium Stearate | 1,060 EU | 29.4 | 1,120 EU | 25.4 | 1,060 EU | 29.4 | 1,120 EU | 25.4 | 1,190 EU | 20.8 | 743 | 50.5 | 716 | 52.3 | 824 | 45.1 | 884 | 41.1 | 703 | 53.2 | Endotoxin Detected (Vortexing, 1 minute): 884 EU; Percent (%) Removed (Vortexing, 1 minute): 41.1%; Endotoxin Detected (Vortexing, 20 minutes): 1,000 EU; Percent (%) Removed (Vortexing, 20 minutes): 33.4%; Endotoxin Detected (Vortexing, 40 minutes): 901 EU; Percent (%) Removed (Vortexing, 40 minutes): 40%; Endotoxin Detected (Vortexing, 60 minutes): 958 EU; Percent (%) Removed (Vortexing, 60 minutes): 36.2%; Endotoxin Detected (Vortexing, 80 minutes): 1,060 EU; Percent (%) Removed (Vortexing, 80 minutes): 29.4%
